Reference: patent EP4631931A1, “HDAC INHIBITOR AND USE THEREOF” (Wigen Biomedicine Technology (Shanghai) Co., Ltd., priority 2022, dated 2024)
pEC50, pIC50: −log10 of the molar value.

Assays:
[1] = tested on: Jurkat cell; experiment: Inhibition of Jurkat cell proliferation (CTG, intracellular ATP); format: cell-based; details: Homo sapiens, 72 h, compared to DMSO group, read-out: Inhibitory activity against Jurkat cell proliferation (IC50)
Experimental: Jurkat or 293T cells were seeded into a 96-well plate at 3000 cells/well. After overnight adherence culture, the serially diluted compound in DMSO was added. After 72 h, the intracellular ATP level was determined by CTG. The IC50 for the inhibition of cell proliferation by the compounds was calculated compared to the DMSO group. Table 8. Inhibitory activity of compounds of the present disclosure against Jurkat/293T cell proliferation (IC50, µM)

[2] = tested on: HeLa cells; experiment: Intracellular acetyl lysine / H3K 27 acetyl lysine level by ELISA; format: cell-based; details: 24 h of treatment
Experimental: HeLa cells were seeded into a 96-well plate at 20000 cells/well. After overnight adherence culture, the serially diluted compound was added. After 24 h of treatment, intracellular levels of acetyl lysine and H3K 27 acetyl lysine were quantified by ELISA. Table 9. Effect of compound of the present disclosure on levels of acetyl lysine and H3K 27 acetyl lysine

[3] = tested on: OVCAR 3 cells; experiment: NK cell-mediated tumor cell killing (NK92 cells, GFP count); format: cell-based; details: Homo sapiens, 72 h compound, 1-4 h co-culture, compared to DMSO group, read-out: EC50 in promoting the NK92 cell-mediated OVCAR 3 cell death
Experimental: OVCAR 3 cells […] expressing GFP were seeded into a 96-well plate at 4000 cells/well. After overnight adherence culture, the serially diluted compounds were added, and the plate was incubated for another 72 h. After the two types of cells were mixed and cultured for another 1-4 h, NK92 cells were removed by washing with PBS, and adherent GFP-positive tumor cells were counted. The EC50 of the compounds in promoting the NK92 cell-mediated OVCAR 3 cell death was calculated compared to the DMSO group. Table 11. NK cell-mediated tumor cell killing by compounds of the present disclosure

[4] = Stability in liver microsomes; format: in vitro ADME; details: 1 µM compound, NADPH, 37 °C
Experimental: After the 1 µM compound was incubated with 0.5 mg/mL of human or mouse liver microsomes and an NADPH regeneration system at 37 °C for different times, respectively, LC-MS-MS was used to analyze the remaining amount of the compound and calculate T1/2. Table 12. Evaluation results of stability of compounds of the present disclosure in human and mouse liver microsomes

[5] = Pharmacokinetic experiment in mice; format: in vivo, CD-1 female mice; details: female, CD-1, mouse, plasma; for Vd: read-out: Vdss
Experimental: CD-1 female mice aged 7 to 10 weeks were intravenously administered and orally administered at doses of 1 mg/kg and 10 mg/kg, respectively. The mice were fasted for at least 12 h before the administration and given food 4 h after the administration, and they were given ad libitum access to water during the experiment.
On the day of the experiment, animals in the intravenous group were given the corresponding compound by single injection via the tail vein at an administration volume of 10 mL/kg; and animals in the oral group were given the corresponding compound by single intragastric injection at an administration volume of 10 mL/kg. The animals were weighed before administration, and the administration volume was calculated according to the body weight. The sample collection time points were 0.083 h, 0.167 h, 0.5 h, 1 h, 2 h, 4 h, 8 h, and 24 h. About 200 µL of whole blood was collected through the orbital venous plexus at each time point and used to prepare plasma for concentration determination by high-performance liquid chromatography-tandem mass spectrometry (LC-MS/MS). The plasma concentrations were processed using a non-compartmental model of Winnolin pharmacokinetic software, and the pharmacokinetic parameters were calculated using a linear-log trapezoidal method. Table 13. Results of in vivo pharmacokinetic evaluation of compounds of the present disclosure

[6] = tested on: Mouse colon cancer MC38 cells; experiment: In vivo efficacy in MC-38 model; parameters: species or system C57BL6N mice; details: small molecules 15mg/kg PO QD, PD-1 1mg/kg IV QW, BDO 2mg/kg IP QW, 21 days; for TGI(%): 6 mice per group
Experimental: (§1) Female C57BL6N mice (aged 6 weeks, 18-22 g) were provided by Vital River Laboratory Animal Technology Co., Ltd. (China) and used one week after quarantine and acclimation. All animals were kept in a room at 23±2 °C with a relative humidity of 50±5%, artificial lighting was provided from 08:00 to 20:00 every day, and the air was exchanged 13-18 times per hour. Mouse colon cancer MC38 cells were cultured conventionally in 1640 medium containing 10% fetal bovine serum in an incubator at 37 °C with 5% CO2. After being subcultured, the cells were collected when they reached the desired amount. The C57BL6N mice were subcutaneously injected with 2 × 10^6 MC38 cells on the right side to form tumors. After the tumors grew to about 100 mm^3, the animals were randomly grouped for administration. Tumor volumes were measured with a caliper on day 3, day 7, day 10, day 14, day 17, and day 21 after the administration. […] The toxicity of the compounds was evaluated according to the body weight and state of the mice.
Table 15. In vivo efficacy of some of the compounds of the present disclosure in MC-38 model

[7] = tested on: Mouse colon cancer CT-26 cells; experiment: In vivo efficacy in CT-26 model; parameters: species or system BALB/c mice; details: small molecules 15mg/kg PO QD, PD-1 1mg/kg IV QW, BDO 2mg/kg IP QW, 21 days; for TGI(%): 6 mice per group
Experimental: as §1, with “BALB/c” for “C57BL6N”, “CT-26” for “MC38”, “10^5 CT-26” for “10^6 MC38”
Table 16. In vivo efficacy of some of the compounds of the present disclosure in CT-26 model

[8] = Human liver microsomes 0.5 mg/mL
[9] = Mouse liver microsomes 0.5 mg/mL
[10] = Injection (1 mg/kg), intravenous

Compound | pIC50 [1] | Acetyl lysine Maximum (%) [2] | Acetyl lysine Minimum effective concentration [2] | H3K 27 Acetyl lysine Maximum (%) [2] | H3K 27 Acetyl lysine Minimum effective concentration [2] | pEC50 [3] | CLint scaled at 1 µM [4, 8] | Clliver [4, 8] | half-life at 1 µM [4, 8] | CLint scaled at 1 µM [4, 9] | Clliver [4, 9] | half-life at 1 µM [4, 9] | AUC(0-t) [5, 10] | clearance [5, 10] | half-life [5, 10] | Vd [5, 10] | AUC(0-t) ([5]; Oral administration (10 mg/kg)) | Cmax ([5]; Oral administration (10 mg/kg)) | Tmax ([5]; Oral administration (10 mg/kg)) | bioavailability ([5]; Oral administration (10 mg/kg)) | also measured
Nc1cc(F)ccc1NC(=O)c1ccc(CNC(=O)/C=C/c2cccnc2)cc1 [Chidamide, reference compound] | 5.79 | 420% | 80 nM | 380% | 80 nM | 6.79 | 20.9 mL/min/kg | 10.41 mL/min/kg | 1.38 h | 222 mL/min/kg | 64.04 mL/min/kg | 0.41 h | 539 ng·h/mL | 33.9 mL/min/kg | 2.03 h | 1.55 L/kg | 2490 ng·h/mL | 3750 ng/mL | 0.17 h | 46.1% | half-life ([5]; Oral administration (10 mg/kg)): 3.51 h; Change in body weight [6]: +21.1%; TGI(%) [6]: 8.9%; Change in body weight [7]: +21.1%; TGI(%) [7]: 8.9%
[2H]c1cc(C(=O)Nc2ccc(F)cc2N)ccc1CNC(=O)/C=C/c1cccnc1 [Compound 5, (E)-N-(2-amino-4-fluorophenyl)-4-((3-(pyridin-3-yl)acrylamido)methyl)-3-d benzamide] | 6.23 | 350% | 16 nM | 420% | 80 nM | 7.47 | 7.95 mL/min/kg | 5.74 mL/min/kg | 3.64 h | 231 mL/min/kg | 64.79 mL/min/kg | 0.393 h | 453 ng·h/mL | 36.8 mL/min/kg | 1.28 h | 1.13 L/kg | 2360 ng·h/mL | 1330 ng/mL | 0.17 h | 52% | half-life ([5]; Oral administration (10 mg/kg)): 3.13 h; Change in body weight [6]: +24.2%; TGI(%) [6]: 12.2%; Change in body weight [7]: +24.2%; TGI(%) [7]: 12.2%
